Laboratory results as given in ChEMBL document CHEMBL1122657, “Dopaminergic agonists: comparative actions of amine and sulfonium analogues of dopamine” (J Med Chem, 1984).

Assays:
Format in all cases: functional
[1] = Effect (0.3 uM) on K+-evoked release of [3H]acetylcholine from striatal slices of reserpine-alpha MPT treated mice evoked by two successive exposures (S1and S2) at 55 and 90 min after the start of perfusion.
[2] = Effect (1.0 uM) on K+-evoked release of [3H]acetylcholine from striatal slices of reserpine-alpha MPT treated mice evoked by two successive exposures (S1and S2) at 55 and 90 min after the start of perfusion.
[3] = Effect (3.0 uM) on K+-evoked release of [3H]acetylcholine from striatal slices of reserpine-alpha MPT treated mice evoked by two successive exposures (S1and S2) at 55 and 90 min after the start of perfusion.
[4] = Effect (0.0 uM) on K+-evoked release of [3H]acetylcholine from striatal slices of reserpine-alpha MPT treated mice evoked by two successive exposures (S1and S2) at 55 and 90 min after the start of perfusion.
Mus musculus = organism: Mus musculus; test: Compound concentration that causes inhibition of [3H]-acetyl choline release by 50% was determined using reserpine-alpha MPT treated mice striatal slices

| SMILES | IC50 (Mus musculus) [µM] | other results |
| --- | --- | --- |
| C[S+](C)c1ccc2cc(O)c(O)cc2c1.[Br-] | – | Ratio [1]: 0.85; Ratio [2]: 0.81; Ratio [3]: 0.86; Ratio [4]: 0.98 |
| NC1CCc2cc(O)c(O)cc2C1 (stereo not drawn) | 0.01 | – |
| CC(N)Cc1ccc(O)c(O)c1 (stereo not drawn) | 10 | – |
| CN(C)CCc1ccc(O)c(O)c1 | 10 | – |
| NCCc1ccc(O)c(O)c1 [DOPAMINE] | 10 | – |
